Laboratory results taken from patent US7064120B2, “Tricyclic pyridyl carboxamides and derivatives thereof tocolytic oxytocin receptor antagonists” (Wyeth, priority 2001, dated 2006).

What follows are compounds tested against T1, human oxytocin receptor (Homo sapiens, UniProt P30559) (assay: Oxytocin binding in CHO cell membranes expressing human oxytocin receptors ([3H]oxytocin radioligand binding)). Settings: 100 nM, read-out: OT % inhibition @ 100 nM.
T1 construct: host or cells: CHO cells, stably transfected (pcDNA3.1 vector)
T1 sequence (P30559 1-389): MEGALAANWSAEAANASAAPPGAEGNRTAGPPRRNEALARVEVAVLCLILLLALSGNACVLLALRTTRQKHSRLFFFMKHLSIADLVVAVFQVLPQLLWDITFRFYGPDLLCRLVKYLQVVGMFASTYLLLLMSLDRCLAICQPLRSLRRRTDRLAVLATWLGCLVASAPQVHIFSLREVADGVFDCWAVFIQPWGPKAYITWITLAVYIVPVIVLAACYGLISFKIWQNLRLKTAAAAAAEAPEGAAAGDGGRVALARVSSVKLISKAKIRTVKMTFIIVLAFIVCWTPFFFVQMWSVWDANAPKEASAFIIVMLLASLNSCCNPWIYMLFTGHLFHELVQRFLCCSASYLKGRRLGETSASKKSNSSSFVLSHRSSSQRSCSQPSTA
Procedure, shortened: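 Values are % inhibition at one concentration or nM IC50 from [3H]oxytocin displacement. Membranes from human oxytocin receptor CHO cells, 25–50 μg protein/well, 60 min at room temperature, pH 7.4 Tris buffer with protease inhibitors; bound label by filtration and scintillation counting.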
Compound `COc1ccccc1-c1ccc(C(=O)N2Cc3ccc(C(=O)N(C)CCc4ccccn4)n3Cc3ccccc32)cc1C` [Example 65, 10-[(2′-Methoxy-2-methyl-[1,1′-biphenyl]-4-yl)carbonyl]-N-methyl-N-[2-(2-pyridinyl)ethyl]-10,11-dihydro-5H-pyrrolo[2,1-c][1,4]benzodiazepine-3-carboxamide] has an inhibition at 0.1 µM of 95%. `Cc1ccccc1-c1ccc(C(=O)N2Cc3ccc(C(=O)N(C)CCc4ccccn4)n3Cc3ccccc32)cc1C` [Example 66, 10-[(2,2′-Dimethyl-[1,1′-biphenyl]-4-yl)carbonyl]-N-methyl-N-[2-(2-pyridinyl)ethyl]-10,11-dihydro-5H-pyrrolo[2,1-c][1,4]benzodiazepine-3-carboxamide] gave an inhibition at 0.1 µM of 92%. With `COc1ccccc1-c1ccc(C(=O)N2Cc3ccc(C(=O)N(C)CCc4ccccn4)n3Cc3ccccc32)cc1` [Example 67, 10-[(2′-Methoxy-[1,1′-biphenyl]-4-yl)carbonyl]-N-methyl-N-[2-(2-pyridinyl)ethyl]-10,11-dihydro-5H-pyrrolo[2,1-c][1,4]benzodiazepine-3-carboxamide] the inhibition at 0.1 µM was 91%. Compound `Cc1ccccc1-c1ccc(C(=O)N2Cc3ccc(C(=O)N(C)CCc4ccccn4)n3Cc3ccccc32)cc1` [Example 68, N-Methyl-10-[(2′-methyl-[1,1′-biphenyl]-4-yl)carbonyl]-N-[2-(2-pyridinyl)ethyl]-10,11-dihydro-5H-pyrrolo[2,1-c][1,4]benzodiazepine-3-carboxamide] has an inhibition at 0.1 µM of 93%. Work on `COc1cc(C(=O)N2Cc3ccc(C(=O)N(C)CCc4ccccn4)n3Cc3ccccc32)ccc1-c1ccccc1C` [Example 69, 10-[(2-Methoxy-2′-methyl-[1,1′-biphenyl]-4-yl)carbonyl]-N-methyl-N-[2-(2-pyridinyl)ethyl]-10,11-dihydro-5H-pyrrolo[2,1-c][1,4]benzodiazepine-3-carboxamide] yielded an inhibition at 0.1 µM of 94%. Compound `COc1cccc(-c2cc(OC)c(C(=O)N3Cc4ccc(C(=O)N(C)CCc5ccccn5)n4Cc4ccccc43)cc2Cl)c1` [Example 70, 10-[(6-Chloro-3,3′-dimethoxy-[1,1′-biphenyl]-4-yl)carbonyl]-N-methyl-N-[2-(2-pyridinyl)ethyl]-10,11-dihydro-5H-pyrrolo[2,1-c][1,4]benzodiazepine-3-carboxamide] has an inhibition at 0.1 µM of 77%. Work on `COc1cc(C(=O)N2Cc3ccc(C(=O)N(C)CCc4ccccn4)n3Cc3ccccc32)ccc1-c1cccc2ccccc12` [Example 71, 10-[3-Methoxy-4-(naphthalen-1-yl)benzoyl]-N-methyl-N-[2-(2-pyridinyl)ethyl]-10,11-dihydro-5H-pyrrolo[2,1-c][1,4]benzodiazepine-3-carboxamide] yielded an inhibition at 0.1 µM of 81%. `COc1cccc(-c2ccc(C(=O)N3Cc4ccc(C(=O)N(C)CCc5ccccn5)n4Cc4ccccc43)cc2OC)c1` [Example 72, 10-[(2,3′-Dimethoxy-[1,1′-biphenyl]-4-yl)carbonyl]-N-methyl-N-[2-(2-pyridinyl)ethyl]-10,11-dihydro-5H-pyrrolo[2,1-c][1,4]benzodiazepine-3-carboxamide] was tested, and the inhibition at 0.1 µM was 89%. `CN(CCc1ccccn1)C(=O)c1ccc2n1Cc1ccccc1N(C(=O)c1ccc(-c3cccc4ccccc34)cc1Cl)C2` [Example 73, 10-[2-Chloro-4-(naphthalen-1-yl)benzoyl]-N-methyl-N-[2-(2-pyridinyl)ethyl]-10,11-dihydro-5H-pyrrolo[2,1-c][1,4]benzodiazepine-3-carboxamide] gave an inhibition at 0.1 µM of 32%. `Cc1cc(C(=O)N2Cc3ccc(C(=O)N(C)CCc4ccccn4)n3Cc3ccccc32)ccc1-c1ccccc1C(F)(F)F` [Example 74, N-Methyl-10-{[2-methyl-2′-trifluoromethyl-[1,1′-biphenyl]-4-yl]carbonyl}-N-[2-(2-pyridinyl)ethyl]-10,11-dihydro-5H-pyrrolo[2,1-c][1,4]benzodiazepine-3-carboxamide] showed an inhibition at 0.1 µM of 91%. `COc1ccccc1-c1ccc(C(=O)N2Cc3ccc(C(=O)N4CCN(c5ccccn5)CC4)n3Cc3ccccc32)cc1C` [Example 75, {10-[(2′-Methoxy-2-methyl-[1,1′-biphenyl]-4-yl)carbonyl]-10,11-dihydro-5H-pyrrolo[2,1-c][1,4]benzodiazepin-3-yl}[4-(2-pyridinyl)-1-piperazinyl]methanone] gave an inhibition at 0.1 µM of 62%. Work on `Cc1ccccc1-c1ccc(C(=O)N2Cc3ccc(C(=O)N4CCN(c5ccccn5)CC4)n3Cc3ccccc32)cc1C` [Example 76, {10-[(2,2′-Dimethyl-[1,1′-biphenyl]-4-yl)carbonyl]-10,11-dihydro-5H-pyrrolo[2,1-c][1,4]benzodiazepin-3-yl}[4-(2-pyridinyl)-1-piperazinyl]methanone] yielded an inhibition at 0.1 µM of 62%. For `COc1cccc(-c2ccc(C(=O)N3Cc4ccc(C(=O)N5CCN(c6ccccn6)CC5)n4Cc4ccccc43)cc2C)c1` [Example 77, {10-[(3′-Methoxy-2-methyl-[1,1′-biphenyl]-4-yl)carbonyl]-10,11-dihydro-5H-pyrrolo[2,1-c][1,4]benzodiazepin-3-yl}[4-(2-pyridinyl)-1-piperazinyl]methanone], the inhibition at 0.1 µM was 21%. Work on `COc1ccccc1-c1ccc(C(=O)N2Cc3ccc(C(=O)N4CCN(c5ccccn5)CC4)n3Cc3ccccc32)cc1` [Example 78, {10-[(2′-Methoxy-[1,1′-biphenyl]-4-yl)carbonyl]-10,11-dihydro-5H-pyrrolo[2,1-c][1,4]benzodiazepin-3-yl}[4-(2-pyridinyl)-1-piperazinyl]methanone] yielded an inhibition at 0.1 µM of 59%.

Same assay, conditions: value in parentheses, read-out: OT (IC50)
Compound `Cc1cc(C(=O)N2Cc3ccc(C(=O)N4CCN(c5ccncc5)CC4)n3Cc3ccccc32)ccc1-c1ccccc1C(F)(F)F` [Example 1] has an IC50 of 11.2 nM. With `Cc1cc(C(=O)N2Cc3ccc(C(=O)N4CCN(Cc5ccc[n+]([O-])c5)CC4)n3Cc3ccccc32)ccc1-c1ccccc1C(F)(F)F` [Example 2, 10-{[2-Methyl-2′-trifluoromethyl-[1,1′-biphenyl]-4-yl]carbonyl}-3-({4-[(1-oxidopyridin-3-yl)methyl]piperazin-1-yl}carbonyl)-10,11-dihydro-5H-pyrrolo[2,1-c][1,4]benzodiazepine] the IC50 was 16.8 nM. Work on `Cc1cc(C(=O)N2Cc3ccc(C(=O)N4CCN(Cc5ccc[n+]([O-])c5C)CC4)n3Cc3ccccc32)ccc1-c1ccccc1C(F)(F)F` [Example 3, 3-({4-[(2-Methyl-1-oxidopyridin-3-yl)methyl]piperazin-1-yl}carbonyl)-10-{[2-methyl-2′-trifluoromethyl-[1,1′-biphenyl]-4-yl]carbonyl}-10,11-dihydro-5H-pyrrolo[2,1-c][1,4]benzodiazepine] yielded an IC50 of 45 nM. For `Cc1cc(C(=O)N2Cc3ccc(C(=O)N(C)Cc4ccc[n+]([O-])c4)n3Cc3ccccc32)ccc1-c1ccccc1C(F)(F)F` [Example 4, N-Methyl-10-{[2-methyl-2′-trifluoromethyl-[1,1′-biphenyl]-4-yl]carbonyl}-N-[(1-oxidopyridin-3-yl)methyl]-10,11-dihydro-5H-pyrrolo[2,1-c][1,4]benzodiazepine-3-carboxamide], the IC50 was 2.44 nM. With `COc1cc(-c2ccccc2C(F)(F)F)c(Cl)cc1C(=O)N1Cc2ccc(C(=O)N(C)Cc3cccnc3)n2Cc2ccccc21` [Example 5, 10-{[6-Chloro-3-methoxy-2′-trifluoromethyl-[1,1′-biphenyl]-4-yl]carbonyl}-N-methyl-N-(pyridin-3-ylmethyl)-10,11-dihydro-5H-pyrrolo[2,1-c][1,4]benzodiazepine-3-carboxamide] the IC50 was 10.2 nM. In the case of `COc1cc(-c2ccccc2Cl)c(Cl)cc1C(=O)N1Cc2ccc(C(=O)N(C)Cc3cccnc3)n2Cc2ccccc21` [Example 6, 10-[(2′,6-Dichloro-3-methoxy-[1,1′-biphenyl]-4-yl)carbonyl]-N-methyl-N-(pyridin-3-ylmethyl)-10,11-dihydro-5H-pyrrolo[2,1-c][1,4]benzodiazepine-3-carboxamide], the IC50 is reported as 7.51 nM. `COc1cc(C(=O)N2Cc3ccc(C(=O)N(C)Cc4cccnc4)n3Cc3ccccc32)ccc1-c1ccccc1C(F)(F)F` [Example 7, 10-{[2-Methoxy-2′-trifluoromethyl-[1,1′-biphenyl]-4-yl]carbonyl}-N-methyl-N-(pyridin-3-ylmethyl)-10,11-dihydro-5H-pyrrolo[2,1-c][1,4]benzodiazepine-3-carboxamide] was tested, and the IC50 was 3.34 nM. Work on `COc1cc(C(=O)N2Cc3ccc(C(=O)N(C)Cc4ccc[n+]([O-])c4)n3Cc3ccccc32)ccc1-c1ccccc1C(F)(F)F` [Example 8, 10-{[2-Methoxy-2′-trifluoromethyl-[1,1′-biphenyl]-4-yl]carbonyl}-N-methyl-N-(1-oxo-pyridin-3-ylmethyl)-10,11-dihydro-5H-pyrrolo[2,1-c][1,4]benzodiazepine-3-carboxamide] yielded an IC50 of 4.65 nM. `COc1cccc(-c2ccc(C(=O)N3Cc4ccc(C(=O)N(C)CCc5ccccn5)n4Cc4ccccc43)cc2C)c1` [Example 62, 10-[(3′-Methoxy-2-methyl-[1,1′-biphenyl]-4-yl)carbonyl]-N-methyl-N-[2-(2-pyridinyl)ethyl]-10,11-dihydro-5H-pyrrolo[2,1-c][1,4]benzodiazepine-3-carboxamide] was tested, and the IC50 was 10.7 nM. Compound `COc1cc(-c2ccccc2C)c(Cl)cc1C(=O)N1Cc2ccc(C(=O)N(C)CCc3ccccn3)n2Cc2ccccc21` [Example 63, 10-[(6-Chloro-3-methoxy-2′-methyl-[1,1′-biphenyl]-4-yl)carbonyl]-N-methyl-N-[2-(2-pyridinyl)ethyl]-10,11-dihydro-5H-pyrrolo[2,1-c][1,4]benzodiazepine-3-carboxamide] has an IC50 of 5.08 nM.
